Measurements taken from PubChem BioAssay AID248 (DTP/NCI, 2004).
Where “and” joins values, the source holds several entries; their conditions need not be identical. Equal entries are not always repeated. Toxic doses and inconclusive results are not listed.

System: L1210 leukemia ip in BDF1 mice, survival T/C
Experiment: NCI In Vivo Anticancer Drug Screen. Data for tumor model L1210 Leukemia (intraperitoneal) in B6D2F1 (BDF1) mice
Conditions: endpoint: mean survival time, higher = longer survival
Method in brief: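 Mice bearing the transplanted tumor received compound or vehicle. Survival of the treated group was divided by that of the vehicle-treated control group to give the ratio.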

[1] = dose: 100.0 mg/kg/injection, schedule: Q01DX009 (ip), vehicle: other
[2] = dose: 200.0 mg/kg/injection, schedule: Q01DX009 (ip), vehicle: other
[3] = dose: 400.0 mg/kg/injection, schedule: Q01DX009 (ip), vehicle: other
[4] = dose: 75.0 mg/kg/injection, schedule: Q01DX001 (ip), vehicle: saline
[5] = dose: 50.0 mg/kg/injection, schedule: Q01DX009 (ip), vehicle: saline with Tween-80
[6] = dose: 100.0 mg/kg/injection, schedule: Q01DX009 (ip), vehicle: saline with Tween-80
[7] = dose: 100.0 mg/kg/injection, schedule: Q04DX003 (ip), vehicle: Klucel (hydroxypropylcellulose) (HPC)
[8] = dose: 200.0 mg/kg/injection, schedule: Q04DX003 (ip), vehicle: Klucel (hydroxypropylcellulose) (HPC)
[9] = dose: 400.0 mg/kg/injection, schedule: Q04DX003 (ip), vehicle: Klucel (hydroxypropylcellulose) (HPC)
[10] = dose: 100.0 mg/kg/injection, schedule: Q04DX003 (ip), vehicle: saline with Tween-80
[11] = dose: 200.0 mg/kg/injection, schedule: Q01DX009 (ip), vehicle: saline with Tween-80
[12] = dose: 200.0 mg/kg/injection, schedule: Q04DX003 (ip), vehicle: saline with Tween-80
[13] = dose: 400.0 mg/kg/injection, schedule: Q01DX009 (ip), vehicle: saline with Tween-80
[14] = dose: 400.0 mg/kg/injection, schedule: Q04DX003 (ip), vehicle: saline with Tween-80
[15] = dose: 100.0 mg/kg/injection, schedule: Q04DX002 (ip), vehicle: Klucel (hydroxypropylcellulose) (HPC)
[16] = dose: 200.0 mg/kg/injection, schedule: Q04DX002 (ip), vehicle: Klucel (hydroxypropylcellulose) (HPC)
[17] = dose: 400.0 mg/kg/injection, schedule: Q04DX002 (ip), vehicle: Klucel (hydroxypropylcellulose) (HPC)
[18] = dose: 100.0 mg/kg/injection, schedule: Q01DX001 (ip), vehicle: carboxymethylcellulose (CMC)
[19] = dose: 200.0 mg/kg/injection, schedule: Q01DX001 (ip), vehicle: carboxymethylcellulose (CMC)
[20] = dose: 400.0 mg/kg/injection, schedule: Q01DX001 (ip), vehicle: carboxymethylcellulose (CMC)

## COc1ccc2c(OC)cccc2c1
[1]
  T/C: 87 % of control
[2]
  T/C: 91 % of control
[3]
  T/C: 91 % of control

## O=C(O)c1cc(C(F)(F)F)nc2c1ccc1ccccc12
[4]
  T/C: 98 % of control
dose: 150.0 mg/kg/injection, schedule: Q01DX001 (ip), vehicle: saline
  T/C: 98 % of control

## CCC1C2CC3C4N(C)c5ccccc5C45CC(C2C5O)N3C1O (stereo unspecified)
[5]
  T/C: 100 % of control
[6]
  T/C: 103 % of control

## O=S1(=O)CC(N2CCCCC2)C1
[4]
  T/C: 103 % of control

## CCCCN1C(=O)C2CC=C3C=CN4C(C3C2C1=O)C1C(=O)N(CCCC)C(=O)C1C41CC(=O)N(CCCC)C1=O (stereo unspecified)
dose: 12.5 mg/kg/injection, schedule: Q01DX009 (ip), vehicle: Klucel (hydroxypropylcellulose) (HPC)
  T/C: 101 % of control
dose: 25.0 mg/kg/injection, schedule: Q01DX009 (ip), vehicle: Klucel (hydroxypropylcellulose) (HPC)
  T/C: 104 % of control
dose: 50.0 mg/kg/injection, schedule: Q01DX009 (ip), vehicle: Klucel (hydroxypropylcellulose) (HPC)
  T/C: 91 % of control
dose: 100.0 mg/kg/injection, schedule: Q01DX009 (ip), vehicle: Klucel (hydroxypropylcellulose) (HPC)
  T/C: 86 % of control
[7]
  T/C: 89 % of control
dose: 200.0 mg/kg/injection, schedule: Q01DX009 (ip), vehicle: Klucel (hydroxypropylcellulose) (HPC)
  T/C: 91 % of control
[8]
  T/C: 90 % of control
[9]
  T/C: 92 % of control

## O=C1CC(c2ccc(Cl)cc2)NC(c2ccc(Cl)cc2)C1 (stereo unspecified)
[6]
  T/C: 101 % of control
[10]
  T/C: 93 % of control
[11]
  T/C: 101 % of control
[12]
  T/C: 96 % of control
[13]
  T/C: 103 % of control
[14]
  T/C: 98 % of control

## Cc1ccc(CNc2ccccc2)cc1
dose: 12.5 mg/kg/injection, schedule: Q04DX003 (ip), vehicle: saline with Tween-80
  T/C: 95 % of control
dose: 25.0 mg/kg/injection, schedule: Q04DX003 (ip), vehicle: saline with Tween-80
  T/C: 95 % of control
dose: 50.0 mg/kg/injection, schedule: Q04DX003 (ip), vehicle: saline with Tween-80
  T/C: 97 % of control
[1]
  T/C: 112 % of control
[2]
  T/C: 93 % of control
[3]
  T/C: 93 % of control

## CC(=O)CCC(=O)CCC(C)=O
dose: 100.0 mg/kg/injection, schedule: Q04DX002 (ip), vehicle: saline
  T/C: 93 % of control
dose: 200.0 mg/kg/injection, schedule: Q04DX002 (ip), vehicle: saline
  T/C: 101 % of control
dose: 400.0 mg/kg/injection, schedule: Q04DX002 (ip), vehicle: saline
  T/C: 101 % of control

## Cc1cc(N(CCCl)CCCl)ccc1C=Nc1ccc2c(c1)ncn2C
[15]
  T/C: 98 % of control
[16]
  T/C: 98 % of control
[17]
  T/C: 98 % of control

## O=C1OC(=O)C2C3C=CC(O3)C12 (stereo unspecified)
dose: 6.25 mg/kg/injection, schedule: Q01DX009 (ip), vehicle: saline
  T/C: 97 % of control
dose: 10.0 mg/kg/injection, schedule: Q04DX003 (ip), vehicle: saline with Tween-80
  T/C: 96 % of control
dose: 12.5 mg/kg/injection, schedule: Q01DX009 (ip), vehicle: saline with Tween-80
  T/C: 111 % of control
dose: 12.5 mg/kg/injection, schedule: Q01DX009 (ip), vehicle: saline
  T/C: 96 % of control
dose: 20.0 mg/kg/injection, schedule: Q04DX003 (ip), vehicle: saline with Tween-80
  T/C: 100 % of control
dose: 25.0 mg/kg/injection, schedule: Q01DX009 (ip), vehicle: saline with Tween-80
  T/C: 108 % of control
dose: 25.0 mg/kg/injection, schedule: Q01DX009 (ip), vehicle: saline
  T/C: 95 % of control
dose: 40.0 mg/kg/injection, schedule: Q04DX003 (ip), vehicle: saline with Tween-80
  T/C: 94 % of control
[5]
  T/C: 95 % of control

## NC(=S)C(=S)NCCO
[6]
  T/C: 103 % of control
[10]
  T/C: 100 % of control
[11]
  T/C: 94 % of control
[12]
  T/C: 93 % of control
[13]
  T/C: 100 % of control
[14]
  T/C: 93 % of control

## Cc1cccc(C)c1OC(=O)Nc1ccc(Cl)cc1
[15]
  T/C: 96 % of control
[16]
  T/C: 110 % of control
[17]
  T/C: 96 % of control

## C[n+]1ccc(Nc2ccc(NC(=O)c3ccc(Nc4cc[n+](C)c5ccc([N+](=O)[O-])cc45)cc3)cc2)cc1
dose: 1.0 mg/kg/injection, schedule: Q01DX009 (ip), vehicle: water
  T/C: 99 % of control
dose: 2.0 mg/kg/injection, schedule: Q01DX009 (ip), vehicle: water
  T/C: 112 % of control
dose: 4.0 mg/kg/injection, schedule: Q01DX009 (ip), vehicle: water
  T/C: 119 % of control
dose: 8.0 mg/kg/injection, schedule: Q01DX009 (ip), vehicle: water
  T/C: 116 % of control
dose: 16.0 mg/kg/injection, schedule: Q01DX009 (ip), vehicle: water
  T/C: 192 % of control
dose: 32.0 mg/kg/injection, schedule: Q01DX009 (ip), vehicle: water
  T/C: 262 % of control
dose: 100.0 mg/kg/injection, schedule: Q04DX003 (ip), vehicle: saline
  T/C: 201 % of control and 219 % of control
dose: 200.0 mg/kg/injection, schedule: Q04DX003 (ip), vehicle: saline
  T/C: 213 % of control
dose: 400.0 mg/kg/injection, schedule: Q04DX003 (ip), vehicle: saline
  T/C: 150 % of control and 153 % of control

## O=C(Nc1ccc(C2=NCCCN2)cc1)N1CCN(C(=O)Nc2ccc(C3=NCCCN3)cc2)CC1
dose: 10.0 mg/kg/injection, schedule: Q01DX Z (ip), vehicle: water
  T/C: 106 % of control
dose: 20.0 mg/kg/injection, schedule: Q01DX Z (ip), vehicle: water
  T/C: 120 % of control

## Cn1ncc2c(=O)[nH]nnc21
[18]
  T/C: 98 % of control
[19]
  T/C: 89 % of control
[20]
  T/C: 104 % of control

## CC(=O)OC12C3CCCC1CCCC2CCC3 (stereo unspecified)
[7]
  T/C: 109 % of control
[8]
  T/C: 93 % of control
[9]
  T/C: 93 % of control

## CCN(CC)Cc1ccccc1COC(=O)c1ccc([N+](=O)[O-])cc1
[15]
  T/C: 97 % of control
[16]
  T/C: 94 % of control
[17]
  T/C: 101 % of control

## O=C(c1cccs1)c1c(C(F)(F)F)oc2c(c1=O)C=CC2
[18]
  T/C: 100 % of control
[19]
  T/C: 87 % of control
[20]
  T/C: 89 % of control

## CC#CCCC(=O)OCCCCC
dose: 100.0 mg/kg/injection, schedule: Q04DX002 (ip), vehicle: saline with Tween-80
  T/C: 97 % of control
dose: 200.0 mg/kg/injection, schedule: Q04DX002 (ip), vehicle: saline with Tween-80
  T/C: 102 % of control

## COc1ccc2nc3cc(Cl)ccc3c(Nc3ccc(O)cc3)c2c1
[6]
  T/C: 91 % of control
[11]
  T/C: 86 % of control

## Nc1nc2nc3c(nc2c(=O)[nH]1)CN(c1ccc(C(=O)NC(CCC(=O)O)C(=O)O)cc1)C3=O (stereo unspecified)
[6]
  T/C: 93 % of control
[11]
  T/C: 95 % of control

## COc1ccc(CN2CCCN(Cc3ccc(OC)cc3OC)C2c2ccccc2OC)c(OC)c1
dose: 50.0 mg/kg/injection, schedule: Q01DX001 (ip), vehicle: carboxymethylcellulose (CMC)
  T/C: 101 % of control
[18]
  T/C: 93 % of control
[19]
  T/C: 93 % of control
[20]
  T/C: 101 % of control

## Cc1ccc(NC(=O)OCCOc2ccc(Br)cc2)cc1[N+](=O)[O-]
[7]
  T/C: 94 % of control
[8]
  T/C: 90 % of control
[9]
  T/C: 94 % of control

## OC1CCC(c2ccccc2)C1 (stereo unspecified)
dose: 75.0 mg/kg/injection, schedule: Q01DX001 (ip), vehicle: other
  T/C: 98 % of control
dose: 150.0 mg/kg/injection, schedule: Q01DX001 (ip), vehicle: other
  T/C: 97 % of control
dose: 300.0 mg/kg/injection, schedule: Q01DX001 (ip), vehicle: other
  T/C: 106 % of control
